Results as given in article PMC13270519, “Cytochrome P450-Mediated Metabolism of Antimycobacterial Nα‑Aroyl‑N‑aryl-phenylalanine Amides” (ACS Infectious Diseases, 2026).

Test: Metabolic stability in mouse liver microsomes (t1/2)
Assay type: in vitro ADME
Conditions: NADPH, 37 °C
Experimental: Microsomal incubations were carried out in 96-well plates in 3 aliquots of 30 μL each (one for each time point). Liver microsomal incubation medium comprised phosphate buffer (100 mM, pH 7.4), MgCl2 (3 mM), NADPH (3 mM), glucose-6-phosphate (5.3 mM), and glucose-6-phosphate dehydrogenase (0.67 units/mL) with 0.42 mg of liver microsomal protein per mL. In the control reactions, the NADPH-cofactor system was substituted with phosphate buffer. Test compounds (2 μM, final solvent concentration 1.6%) were incubated with microsomes at 37 °C, shaking at 100 rpm. Three time points over 7 min were analyzed. The reactions were stopped by adding 5 volumes of methanol with internal standard to incubation aliquots followed by protein sedimentation by centrifuging at 6,000 rpm for 20 min. Each reaction was performed in duplicate. Supernatants were analyzed using the HPLC system coupled with a tandem mass spectrometer and high-resolution mass spectrometer.
The incubation was stopped after defined time points by precipitation of aliquots of enzymes with 2 volumes of cold internal standard solution (15 nM diphenhydramine in 10% methanol/acetonitrile). […] The remaining test compound at the different time points was analyzed by HPLC-MS/MS (Vanquish Flex coupled to a TSQ Altis Plus, Thermo Fisher, Dreieich, Germany) and used to determine half-life (t 1/2).

SMILES	Mouse liver microsomes t1/2 [min]
O=C(N[C@H](Cc1ccccc1)C(=O)Nc1ccccc1N1CCS(=O)(=O)CC1)c1ccccc1F [AAP-SO2]	1.8
O=C(N[C@H](Cc1ccccc1)C(=O)Nc1ccccc1N1CCOCC1)c1cccs1 [MMV688845]	0.9
